Laboratory results reported in PubChem BioAssay AID179 (DTP/NCI, 2004).
Activity calls are given as the source filed them.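 How the source made its calls: active means compounds giving half or more protection of infected cells from virus-caused growth loss, again on retest; inactive means the rest.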 Where a SMILES comes first, the peptide text is derived from it. Bridges are numbered along the chain shown (N, C = ends).

Test system: CEM cells HIV-1 protection, formazan growth assay
Experiment: NCI AIDS Antiviral Assay
Conditions: for IC50: measured here: growth of uninfected CEM cells
Method in brief: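 Protection of CEM cells against HIV-1 was scored from cell growth (soluble formazan) across five concentrations, with parallel uninfected cells. Lack of protection may reflect toxicity.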

SMILES	EC50	IC50	outcome
CCn1c(=O)c(N=O)c(N)n(C2CC2)c1=O	> 200 µM	> 200 µM	
COc1ccc(C2SC(N)=Nc3c2c(C)nn3C(=O)c2ccccc2O)cc1OC (stereo not given)	> 20 µM	0.617 µM	
COc1ccccc1NC(=O)/C(Cc1nc2ccc([N+](=O)[O-])cc2[nH]c1=O)=N\NC(=O)C[N+](C)(C)C	> 245 µM	50.1 µM	
CC1OC(OC2C(O)COC(OC3C(C)OC(OC4C(OC(=O)[C@]56CCC(C)(C)C[C@@H]5C5=CCC7[C@@]8(C)C[C@H](O)[C@H](OC9OC(CO)C(O)C(O)C9O)[C@@](C)(CO)[C@@H]8CC[C@@]7(C)[C@]5(C)CC6)OCC(O)C4O)C(O)C3OC3OCC(O)(CO)C3O)C2O)C(O)C(O)C1O (stereo not given in full)	> 30.2 µM	17.8 µM	
COc1ccc2nc3c([N+](=O)[O-])ccc4c3c(c2c1)N=CN4CCCN(C)C	0.141 µM	0.468 µM	
CC(=O)NC(CCC(=O)C=[N+]=N)C(=O)O (stereo not given)	> 200 µM	29.5 µM	
CC1=NOC(=O)/C1=C/c1ccccc1O	> 178 µM	> 178 µM	
O=C(NCCCNCCCCNCCCNC(=O)C(F)(F)F)C(F)(F)F	> 200 µM	14.8 µM	
O=S(=O)(N/N=C/c1c(Cl)cccc1Cl)c1ccccc1			inactive
CC(C)OC(=O)c1cccnc1/C=N/O	> 1200 µM	112 µM	
O=C(O)c1ccc(N=NC2Sc3nc4ccccc4n3C2=O)cc1 (stereo not given)	> 200 µM	> 200 µM	
Clc1ccc(Nc2nc(Cl)c3[nH]cnc3n2)cc1Cl	> 200 µM	63.1 µM	
CCC(C)C1NC(=O)C(CC(C)C)NC(=O)C(C(C)C)NC(=O)C2CSSCC(NC1=O)C(=O)N2 (stereo not given) (cyclo(CCVLI); disulfide 1-2; configuration not given here)	> 2 µM	0.339 µM	
Cc1ccc(S(=O)(=O)n2ccn3c(=O)cc(C)nc23)cc1	> 200 µM	> 200 µM	
CCOC(=O)c1[nH]n(-c2ccccc2)c(=O)c1C=NC(=S)c1cccnc1	> 200 µM	89.1 µM	
CC(C)CC1NC(=O)C(CC(C)C)N(CO)C1=O (stereo not given)	> 200 µM	> 200 µM	
CCOC(=O)C(C(=O)c1ccccc1C(=O)OC)=P(c1ccccc1)(c1ccccc1)c1ccccc1	22.9 µM	52.5 µM	
CO/C=C(\Br)c1ccc2c(c1)OCO2			inactive
O=c1nc2sc3ccc4ccccc4c3n2nc1-c1ccccc1	> 49 µM	> 49 µM	
COCCCN1CC(=O)N2Cc3ccccc3CN2C(=O)C1		> 200 µM	inactive
Cn1cnc([N+](=O)[O-])c1Sc1nncc2[nH]cnc12	46.8 µM	> 200 µM	

SMILES	EC50	IC50	outcome
Cc1oc2c(c(C)nn2-c2ccccc2)c(=O)c1Cl	> 200 µM	174 µM	
c1cc(-c2nc(-c3ccncc3)nc(-c3ccncc3)n2)ccn1	> 200 µM	> 200 µM	
CC(=O)O[C@H]1CC[C@@]2(C)C(=CC[C@@H]3C2CC[C@]2(C)Nc4[nH]ncc4CC32)C1 (stereo not given in full)			inactive
CC(C)(c1ccc(C=O)o1)c1ccc(C(C)(C)c2ccc(C=O)o2)o1			inactive
CCOP(=O)(OCC)/C(F)=C/c1ccc(F)cc1			inactive
CCOC(=O)c1nc2cc(F)cc(F)c2[nH]c1=O	> 200 µM	162 µM	
CC(C)=CC[C@]12CCN(C)[C@H]1N(S(=O)(=O)c1ccccc1)c1ccccc12	> 200 µM	135 µM	
CCOC(=O)C1=C(C)N(NC(=O)Nc2ccccc2)C2(N)N(NC(=O)Nc3ccccc3)C(C)=C(C(=O)OCC)C12C#N (stereo not given)	> 31.6 µM	> 31.6 µM	
O=[N+]([O-])C1C2C=CC(C2)[C@H]1c1ccco1 (stereo not given in full)			inactive
CS(=O)(=O)ON1C(=O)c2ccc(N)cc2C1=O	> 372 µM	282 µM	
CC(=O)OCCCOCn1c(Cc2ccccc2)c(C(C)C)c(=O)[nH]c1=O	0.0794 µM	89.1 µM	
CC1=NN(C(=O)CC(=O)Nc2ccccc2C)C(=O)C1N=Nc1ccc(S(=O)(=O)c2ccc(N=NC3C(=O)N(C(=O)CC(=O)Nc4ccccc4C)N=C3C)cc2)cc1 (stereo not given)	> 50.1 µM	> 50.1 µM	
CC1=CC(=O)N2CCN=C2S1	> 200 µM	> 200 µM	
O=C(Nc1nc2ccccc2n1Cc1ccccc1)C(=O)NC12CC3CC(CC(C3)C1)C2	> 43.7 µM	> 43.7 µM	
NC(=O)Nn1c2c(c3c1CCCC3)CCCC2			inactive
COc1ccc2c(c1)C(C(=O)O)CC(=O)N2C (stereo not given)	> 200 µM	> 200 µM	
CCN(CC)c1ccc(N=Nc2ccc(N=Nc3c(S(=O)(=O)O)cc4ccc(N)cc4c3O)c(OCCO)c2)cc1	> 14.8 µM	> 14.8 µM	
CN(c1c(Cl)cccc1Cl)S(=O)(=O)c1ccccc1[N+](=O)[O-]	> 200 µM	66.1 µM	
COC(=O)/C(=N/NC(=O)C[N+](C)(C)C)C(C(=O)OC)C(=O)C(=O)Nc1ccc(F)cc1 (stereo not given)	> 145 µM	> 145 µM	
Cc1cc(Cc2cc(C)c(O)c(C(=O)O)c2)cc(C(=O)O)c1O	380 µM	417 µM	
